From US20250093329A1, “SCREENING OF COMPOUNDS” (THE UNIVERSITY OF TULSA, priority 2022, published 2025)
Entries after “also recorded” stand apart in the source; their conditions may differ.

System: each cell line tested
Assay: ATP levels by CellTiter-Glo, all cell lines of Table 1 taken together
Assay type: cell-based
Details: Table 1 cell lines
From the text: A wide variety of ATP luminescing detection reagents are available commercially. So long as the reagent produces a luminescence in the presence of ATP, the reagent will be suitable for use in the present method. Suitable reagents include but are not limited to any ATP dependent luciferase such as but not limited to firefly luciferase, other modified luciferase based reagents, i.e. luciferase derivatives. According to the rapid method for determining the anti-cancer activity of a compound, a sample of living cells is distributed across a number of testing wells. Typically, 96-well plates are used; however, the number of wells is not critical to the current method. When using a 96-well plate the number of living cells will commonly be about 20,000. […] The sample wells contain a cell growth medium to promote cell health and growth and an additive to prevent bacterial contamination of the wells. One common example of the cell growth medium is DMEM with 10% FBS as described above. One example of the additive to prevent bacterial contamination is a solution of penicillin G and streptomycin referred to commonly as Pen-Strep. The Pen-Strep solution typically contains 5000 units of penicillin G and 5000 micrograms of streptomycin. Thus, the rapid determination of anti-cancer compounds can be carried out using the following method. • The desired number of cells are distributed in a 96-well plate containing 100 μL DMEM plus 10% FBS with optional Pen-Strep. • After 24 hours, cells are treated with the compound of interest or a 5% solution of dimethyl sulfoxide (DMSO) in water as a control. • The time period for exposure to the compound of interest and the DMSO control will vary depending on the luminescing detection reagent. However, when using a commercially available reagent such as resazurin (CellTiter Blue commercially available from Promega) or luciferase or a luciferase derivative (CellTiter Glo commercially available from Promega) the time period can be readily determined with reference to literature from the commercial source. Other luminescing detection agents can also be used with minimal experimentation to determine the desired compound exposure time. • Upon completion of the time period for exposure to the compound of interest or the DMSO, 10 μL of the luminescing detection reagent is added and the cells are lysed by a detergent added along with the luminescing detection reagent. • When the reagent is resazurin, as found in CellTiter-Blue the time period for exposure to the compound of interest and the DMSO will be about 24 hours. • When the reagent is luciferase or a luciferase derivative as found in CellTiter-Glo the time period for exposure to the compound of interest and the DMSO will be about 30 minutes to four hours. • The luminescing detection reagent is added over a period of time. • When using resazurin, the time period for the addition of the 10 μl volume takes place over a period of about one to four hours. • When using luciferase or a luciferase derivative, the time period is about 3 minutes to about 7 minutes, typically about 5 minutes. • During the time period of addition of the luminescing detection reagent the resulting luminescence is measured using conventional methods and devices. […] If the compound of interest deactivates the cell, then the cell produces less or no ATP. As a result, the cells in the well treated with the compound of interest will have a lower luminescence value as compared to the cells in wells treated with DMSO. • The value for the cells treated with the compound of interest is reported as a “percent of control” (POC) value. The determination of POC is calculated by dividing the averaged response from duplicate wells containing the cells as treated with the compound of interest by the average response of duplicate control wells which contain only cells and DMSO (in other words, a blank control experiment). […]

## O=S(=O)(NCc1c[nH]c2ccccc12)c1ccc(Cl)cc1 [Compound 2, N-[(1H-indol-3-yl)methyl]-4-chlorobenzenesulfonamide]
100 μM compound alone
  reduction in luminescence (reduced ATP) across the cell lines, compound alone: reduction in luminescence
100 μM compound with 2-DG
  effectiveness across the cell lines, with 2-DG: effectiveness against each cell line; also recorded: remarkable effectiveness
